Laboratory results as given in ChEMBL document CHEMBL1201862, “PubChem BioAssay data set” (2004).
Active and inactive are the calls of the source. For most assays here, no stated cut-off is given here; in the data, actives have a measured EC50 and inactives only a lower limit.

What was measured:
[1] = biological target: T1, Neuropeptide Y receptor type 1 (Homo sapiens, UniProt P25929); assay type: functional;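 further: HEK293 cells with a CNG channel challenged with NPY then isoproterenol; potency as antagonist that reverses NPY suppression of cAMP signal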
T1 sequence (P25929 whole entry): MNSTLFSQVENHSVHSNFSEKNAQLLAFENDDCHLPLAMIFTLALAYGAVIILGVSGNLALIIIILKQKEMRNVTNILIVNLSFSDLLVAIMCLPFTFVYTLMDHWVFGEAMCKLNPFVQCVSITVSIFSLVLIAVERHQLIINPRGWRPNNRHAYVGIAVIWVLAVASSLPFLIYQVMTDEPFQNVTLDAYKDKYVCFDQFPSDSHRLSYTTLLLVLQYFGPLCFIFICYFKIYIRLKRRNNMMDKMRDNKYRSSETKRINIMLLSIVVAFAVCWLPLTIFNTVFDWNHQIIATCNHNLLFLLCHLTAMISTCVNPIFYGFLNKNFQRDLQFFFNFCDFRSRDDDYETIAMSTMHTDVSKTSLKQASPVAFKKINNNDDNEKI

[2] = biological target: T2, Neuropeptide Y receptor type 2 (Homo sapiens, UniProt P49146); assay type: functional, cell-based;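 further: HEK293 cells expressing the receptor and a CNG channel; stimulus was NPY near EC95 followed by isoproterenol to raise cAMP; antagonist potency measured as restoring cAMP signal that NPY suppresses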
T2 sequence (P49146 whole entry): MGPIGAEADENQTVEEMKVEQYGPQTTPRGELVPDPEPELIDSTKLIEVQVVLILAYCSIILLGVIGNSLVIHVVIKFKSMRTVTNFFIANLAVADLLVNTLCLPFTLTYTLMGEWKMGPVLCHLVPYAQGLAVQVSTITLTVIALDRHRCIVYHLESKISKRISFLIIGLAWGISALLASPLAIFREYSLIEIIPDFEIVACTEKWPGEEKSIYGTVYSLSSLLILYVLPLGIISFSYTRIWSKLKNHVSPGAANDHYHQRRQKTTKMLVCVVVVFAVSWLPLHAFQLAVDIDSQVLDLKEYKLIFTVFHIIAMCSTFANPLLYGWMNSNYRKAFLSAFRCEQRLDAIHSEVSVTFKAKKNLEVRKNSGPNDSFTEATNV

[3] = system: Streptococcus; test: Group A Streptococcus viability loss, dose response, counter-screen for streptokinase expression inhibitor project, luminescence, BacTiterGlo (AID 1915); assay type: functional, organism-based;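 further: potency for reduction of bacterial viability or growth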
[4] = biological target: Genome polyprotein (dengue virus type 2, UniProt P29990); test: Dengue-2 NS5 methyltransferase inhibitors, primary screen, biochemical, confirmation dose response (AID 588689); assay type: functional
Sequence of Genome polyprotein (P29990 2492-3391 limits assumed): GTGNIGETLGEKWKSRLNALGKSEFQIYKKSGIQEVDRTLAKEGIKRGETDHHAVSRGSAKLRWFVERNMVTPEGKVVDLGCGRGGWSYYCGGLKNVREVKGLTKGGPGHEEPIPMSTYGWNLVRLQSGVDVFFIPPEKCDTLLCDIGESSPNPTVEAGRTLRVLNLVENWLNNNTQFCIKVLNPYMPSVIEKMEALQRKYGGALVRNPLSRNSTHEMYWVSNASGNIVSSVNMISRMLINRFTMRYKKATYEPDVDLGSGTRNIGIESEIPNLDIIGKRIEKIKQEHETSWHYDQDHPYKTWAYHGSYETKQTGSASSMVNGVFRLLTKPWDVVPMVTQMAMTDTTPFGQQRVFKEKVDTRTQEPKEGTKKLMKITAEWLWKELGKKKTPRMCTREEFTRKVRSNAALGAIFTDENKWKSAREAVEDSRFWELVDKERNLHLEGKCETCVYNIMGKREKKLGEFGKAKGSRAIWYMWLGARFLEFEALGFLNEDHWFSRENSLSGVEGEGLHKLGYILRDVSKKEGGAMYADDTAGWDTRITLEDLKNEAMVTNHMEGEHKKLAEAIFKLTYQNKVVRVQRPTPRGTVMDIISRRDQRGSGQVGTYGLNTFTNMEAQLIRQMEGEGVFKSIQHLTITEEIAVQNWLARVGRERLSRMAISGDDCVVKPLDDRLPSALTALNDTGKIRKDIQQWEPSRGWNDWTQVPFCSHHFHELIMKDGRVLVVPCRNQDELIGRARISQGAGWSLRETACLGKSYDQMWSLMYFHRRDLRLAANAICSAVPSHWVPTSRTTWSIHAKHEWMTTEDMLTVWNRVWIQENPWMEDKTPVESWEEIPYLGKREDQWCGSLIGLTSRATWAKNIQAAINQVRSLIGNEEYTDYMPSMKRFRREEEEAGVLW

[5] = system: Streptococcus sp. 'group A'; test: growth inhibition of control SK(-) GAS strain, dose response, counter-screen for streptokinase expression inhibitor project, luminescence, kanamycin, BacTiterGlo, confirmation (AID 1900); assay type: functional, organism-based
[6] = biological target: T3, Aminopeptidase N (Plasmodium falciparum FcB1/Columbia, UniProt O96935); test: P. falciparum M1AAP inhibitors, biochemical, fluorogenic H-Leu-NHMec substrate, 1536-well (AID 1445); parameters: species or system Plasmodium falciparum 3D7, 3D7
T3 sequence (O96935 whole entry): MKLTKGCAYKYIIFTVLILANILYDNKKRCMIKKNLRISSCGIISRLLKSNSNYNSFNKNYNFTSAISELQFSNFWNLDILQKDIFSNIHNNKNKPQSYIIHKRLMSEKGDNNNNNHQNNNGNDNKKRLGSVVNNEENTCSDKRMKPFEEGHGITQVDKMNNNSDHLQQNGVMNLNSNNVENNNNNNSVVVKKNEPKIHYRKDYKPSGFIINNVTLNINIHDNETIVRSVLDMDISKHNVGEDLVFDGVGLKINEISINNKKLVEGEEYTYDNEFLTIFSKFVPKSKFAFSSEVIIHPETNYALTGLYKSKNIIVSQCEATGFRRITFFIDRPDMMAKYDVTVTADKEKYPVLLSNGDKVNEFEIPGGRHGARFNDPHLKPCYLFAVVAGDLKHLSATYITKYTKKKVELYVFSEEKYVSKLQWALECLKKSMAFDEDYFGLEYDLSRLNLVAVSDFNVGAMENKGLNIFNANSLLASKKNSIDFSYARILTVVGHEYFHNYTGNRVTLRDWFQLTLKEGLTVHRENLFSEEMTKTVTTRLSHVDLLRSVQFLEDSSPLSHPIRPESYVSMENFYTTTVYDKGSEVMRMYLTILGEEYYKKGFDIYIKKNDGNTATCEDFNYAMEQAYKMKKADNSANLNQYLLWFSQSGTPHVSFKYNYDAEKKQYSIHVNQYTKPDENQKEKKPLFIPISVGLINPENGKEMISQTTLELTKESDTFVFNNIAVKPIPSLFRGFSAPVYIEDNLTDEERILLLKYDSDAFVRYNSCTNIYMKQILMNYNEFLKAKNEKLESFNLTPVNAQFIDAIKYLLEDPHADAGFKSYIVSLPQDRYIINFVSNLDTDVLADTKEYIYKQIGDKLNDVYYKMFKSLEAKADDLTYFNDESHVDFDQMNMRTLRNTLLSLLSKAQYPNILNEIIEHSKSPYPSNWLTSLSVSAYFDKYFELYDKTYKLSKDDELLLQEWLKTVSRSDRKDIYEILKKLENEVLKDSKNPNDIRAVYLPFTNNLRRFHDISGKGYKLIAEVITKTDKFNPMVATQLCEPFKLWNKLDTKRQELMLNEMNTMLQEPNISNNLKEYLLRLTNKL

[7] = biological target: T4, Streptokinase A (Streptococcus pyogenes serotype M1, UniProt P10520); test: S. pyogenes streptokinase expression inhibitors, potency, dose response, plasminogen activation absorbance, OD405 (AID 1914); assay type: functional, Streptococcus pyogenes M1 GAS;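 further: secreted streptokinase activity via plasminogen activation per viability signal from cell pellet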
T4 sequence (P10520 whole entry): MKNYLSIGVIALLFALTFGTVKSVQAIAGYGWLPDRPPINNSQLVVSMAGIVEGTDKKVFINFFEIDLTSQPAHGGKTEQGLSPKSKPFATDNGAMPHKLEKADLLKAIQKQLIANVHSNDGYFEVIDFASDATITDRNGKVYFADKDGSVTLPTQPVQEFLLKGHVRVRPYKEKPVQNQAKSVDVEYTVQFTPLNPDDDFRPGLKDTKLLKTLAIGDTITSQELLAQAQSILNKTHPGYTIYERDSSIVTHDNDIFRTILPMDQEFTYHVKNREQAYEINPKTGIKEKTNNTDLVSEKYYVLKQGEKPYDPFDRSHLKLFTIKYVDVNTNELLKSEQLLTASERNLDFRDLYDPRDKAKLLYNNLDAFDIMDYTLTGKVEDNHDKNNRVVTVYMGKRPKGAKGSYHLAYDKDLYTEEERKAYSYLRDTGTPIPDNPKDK

[8] = HIV-1 Env-mediated cell fusion inhibitors, dose response, CCR5-tropic Env (AID 2279); assay type: functional
[9] = C. albicans growth with fluconazole, confirmation, fluorescence, retest (AID 2467); assay type: functional, cell-based
[10] = NIH-3T3 fibroblast cytotoxicity, dose response, cytotoxicity control, cell-based, fluorescence, Alamar Blue, secondary assay (AID 2327); assay type: functional;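 further: NIH-3T3 mouse fibroblasts cultured with fluconazole at 8 µg/mL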
[11] = biological target: Potassium voltage-gated channel subfamily KQT member 2 (Rattus norvegicus, UniProt O88943, W236L); test: KCNQ2 channel potentiators, dose response, mechanism study for KCNQ2 potentiator project, cell-based, automated electrophysiology (AID 2603); assay type: functional
Sequence of Potassium voltage-gated channel subfamily KQT member 2 (O88943 whole entry W236L): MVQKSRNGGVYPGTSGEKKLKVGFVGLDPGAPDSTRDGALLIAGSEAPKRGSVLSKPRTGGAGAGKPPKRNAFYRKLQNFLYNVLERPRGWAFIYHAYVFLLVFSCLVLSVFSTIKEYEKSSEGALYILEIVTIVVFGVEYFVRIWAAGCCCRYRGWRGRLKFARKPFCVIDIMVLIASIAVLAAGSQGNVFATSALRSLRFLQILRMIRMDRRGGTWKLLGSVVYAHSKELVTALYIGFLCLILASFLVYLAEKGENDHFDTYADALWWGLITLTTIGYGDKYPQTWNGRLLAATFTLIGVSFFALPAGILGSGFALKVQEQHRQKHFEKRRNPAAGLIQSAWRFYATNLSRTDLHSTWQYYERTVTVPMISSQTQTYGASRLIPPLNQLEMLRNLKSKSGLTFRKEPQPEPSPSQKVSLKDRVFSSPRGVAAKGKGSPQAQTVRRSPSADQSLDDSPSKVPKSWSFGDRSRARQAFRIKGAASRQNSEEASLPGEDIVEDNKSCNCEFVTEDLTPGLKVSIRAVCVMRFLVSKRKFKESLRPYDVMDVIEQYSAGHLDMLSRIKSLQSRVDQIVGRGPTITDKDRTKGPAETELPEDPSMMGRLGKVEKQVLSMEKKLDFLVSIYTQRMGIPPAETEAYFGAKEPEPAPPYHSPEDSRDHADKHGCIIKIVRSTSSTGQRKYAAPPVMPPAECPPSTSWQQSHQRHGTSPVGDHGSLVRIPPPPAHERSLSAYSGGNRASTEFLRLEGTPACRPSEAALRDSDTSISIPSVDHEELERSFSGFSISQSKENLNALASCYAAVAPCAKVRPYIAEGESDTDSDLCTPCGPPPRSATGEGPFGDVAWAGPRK

[12] = Luminescence Cell-Based Dose Response to Identify Activators of 5'UTR Stem-Loop Driven Prion Protein mRNA Translation in H4-C Neuroglioblastoma Cells. [Related pubchem assays: 1829 (Project Summary), 1814 (Primary HTS)]; assay type: functional
[13] = system: H4; test: Luminescence Cell-Based Dose Response HTS to Identify Activators of 5'UTR Stem-Loop Driven Prion Protein mRNA Translation in H4 Neuroglioblastoma Cells. [Related pubchem assays: 1829 (Project Summary), 1814 (Primary HTS)]; assay type: functional; conditions: Homo sapiens
[14] = Luminescence Cell-Based Dose Confirmation HTS to Identify Activators of 5'UTR Stem-Loop Driven Alpha-Synuclein mRNA Translation in H4 Neuroglioblastoma Cells. [Related pubchem assays: 1829 (Project Summary), 1814 (Primary HTS)]; assay type: functional
[15] = Luminescence Cell-Based Dose Confirmation to Identify Activators of 5'UTR Stem-Loop Driven Alpha-Synuclein mRNA Translation in H4 Neuroglioblastoma Cells. [Related pubchem assays: 1829 (Project Summary), 1814 (Primary HTS)]; assay type: functional
[16] = Luminescence Cell-Based Dose Response to Identify Activators of Luciferase Translation or Activity in H4-C Neuroglioblastoma Cells. [Related pubchem assays: 1829 (Project Summary), 1814 (Primary HTS)]; assay type: functional
[17] = biological target: DNA dC->dU-editing enzyme APOBEC-3G (Homo sapiens, UniProt Q9HC16); assay type: functional;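 further: Dose-response counterscreen measuring inhibition of APOBEC3G DNA deaminase activity, run while confirming APOBEC3A inhibitors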
Sequence of DNA dC->dU-editing enzyme APOBEC-3G (Q9HC16 whole entry): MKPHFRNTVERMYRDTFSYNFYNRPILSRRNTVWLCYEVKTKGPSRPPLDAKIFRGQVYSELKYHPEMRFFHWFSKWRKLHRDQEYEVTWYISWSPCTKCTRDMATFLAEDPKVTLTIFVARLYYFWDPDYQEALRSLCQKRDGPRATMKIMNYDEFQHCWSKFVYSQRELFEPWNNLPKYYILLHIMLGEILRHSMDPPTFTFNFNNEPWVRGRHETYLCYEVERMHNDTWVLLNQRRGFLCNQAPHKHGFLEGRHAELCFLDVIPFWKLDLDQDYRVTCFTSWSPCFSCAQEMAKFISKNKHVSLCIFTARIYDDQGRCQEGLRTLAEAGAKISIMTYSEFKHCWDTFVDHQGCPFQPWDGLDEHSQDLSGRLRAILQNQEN

[18] = biological target: DNA dC->dU-editing enzyme APOBEC-3A (Homo sapiens, UniProt P31941); test: Dose Response confirmation of small molecule APOBEC3A DNA Deaminase Inhibitors via a fluorescence-based single-stranded DNA deaminase assay. [Related pubchem assays (depositor defined):AID493011, AID493024]; assay type: functional
Sequence of DNA dC->dU-editing enzyme APOBEC-3A (P31941 whole entry): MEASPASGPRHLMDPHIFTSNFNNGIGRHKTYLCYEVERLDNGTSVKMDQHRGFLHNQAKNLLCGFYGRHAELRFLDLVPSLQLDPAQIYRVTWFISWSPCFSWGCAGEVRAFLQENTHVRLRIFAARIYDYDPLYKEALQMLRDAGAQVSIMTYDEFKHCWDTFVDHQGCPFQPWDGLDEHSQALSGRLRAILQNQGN

[19] = enhancers of respiration in Yfh1-depleted yeast, dose response, Friedreich's ataxia, plus single-dose screen (AID 1465); assay type: functional;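 further: yeast depleted of Yfh1p frataxin homolog grown on glycerol needing respiration; WST-1 tetrazolium dye reduction as measure of cellular dehydrogenase metabolic activity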
[20] = biological target: T5, Bcl-2-like protein 10 (Homo sapiens, UniProt Q9HD36); test: Biochemical TR3 FP assay of Bcl-B inhibitor potency, EC50 (AID 1243); assay type: functional
T5 sequence (Q9HD36 whole entry): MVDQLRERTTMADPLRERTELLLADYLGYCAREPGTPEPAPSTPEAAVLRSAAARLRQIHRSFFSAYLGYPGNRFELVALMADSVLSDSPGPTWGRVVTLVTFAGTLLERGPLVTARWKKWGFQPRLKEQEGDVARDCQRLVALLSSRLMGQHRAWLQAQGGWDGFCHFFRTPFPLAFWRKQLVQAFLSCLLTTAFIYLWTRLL

[21] = biological target: Sphingosine 1-phosphate receptor 2 (Homo sapiens, UniProt O95136); test: Dose Response Cell Based Assay for Agonists of the S1P2 Receptor of Purchased Analogues. [Related pubchem assays: 729, 843, 854, 736 ]; assay type: functional
Sequence of Sphingosine 1-phosphate receptor 2 (O95136 whole entry): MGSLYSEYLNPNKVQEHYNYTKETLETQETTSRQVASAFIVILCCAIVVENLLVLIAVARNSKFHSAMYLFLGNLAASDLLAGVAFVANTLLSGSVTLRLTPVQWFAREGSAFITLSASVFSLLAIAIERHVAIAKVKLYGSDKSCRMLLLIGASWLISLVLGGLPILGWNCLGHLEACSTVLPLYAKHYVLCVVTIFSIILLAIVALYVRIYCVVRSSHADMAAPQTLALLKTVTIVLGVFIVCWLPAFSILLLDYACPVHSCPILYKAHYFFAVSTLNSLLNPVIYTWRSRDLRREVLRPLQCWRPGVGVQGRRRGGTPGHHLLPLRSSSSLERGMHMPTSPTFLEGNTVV

[22] = system: Vero; test: cells; assay type: functional, cell-based; conditions: Chlorocebus sabaeus
[23] = biological target: T6, Cytochrome P450 1A2 (Homo sapiens, UniProt P05177);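 further: PubChem cytochrome P450 panel assay, CYP1A2 panel member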
T6 sequence (P05177 whole entry): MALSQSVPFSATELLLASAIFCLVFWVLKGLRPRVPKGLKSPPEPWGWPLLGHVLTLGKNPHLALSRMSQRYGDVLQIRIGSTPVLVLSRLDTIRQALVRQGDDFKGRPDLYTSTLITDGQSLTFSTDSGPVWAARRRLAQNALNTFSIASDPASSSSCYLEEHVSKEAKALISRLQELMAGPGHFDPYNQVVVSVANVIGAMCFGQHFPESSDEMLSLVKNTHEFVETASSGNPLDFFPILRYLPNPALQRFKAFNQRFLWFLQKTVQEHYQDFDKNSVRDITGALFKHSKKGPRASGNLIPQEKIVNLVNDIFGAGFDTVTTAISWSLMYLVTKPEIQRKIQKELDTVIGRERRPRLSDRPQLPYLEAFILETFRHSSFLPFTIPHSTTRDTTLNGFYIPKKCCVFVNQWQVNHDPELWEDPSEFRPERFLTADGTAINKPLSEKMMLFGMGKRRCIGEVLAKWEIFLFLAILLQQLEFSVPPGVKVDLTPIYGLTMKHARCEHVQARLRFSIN

[24] = system: Vero; test: host cell cytotoxicity of antiviral hits, dose response, cytotoxicity control for West Nile virus antiviral project, secondary assay (AID 1650); assay type: functional; conditions: Chlorocebus sabaeus
[25] = inhibitors of intracellular T. cruzi replication, confirmation, NIH3T3 host cells, beta-gal luminescence (AID 2044); assay type: functional, cell-based;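 further: intracellular parasites grown in NIH/3T3 mouse fibroblasts as host cells; luminescent beta-galactosidase reporter signal from transgenic T. cruzi replicating inside host cells; inhibitors lower the luminescence signal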
[26] = inhibitors of firefly luciferase expression or activity, dose response, H4 neuroglioma cells, luminescence (AID 1990); assay type: functional, cell-based
[27] = inhibitors of SNCA 5'UTR-driven reporter translation, confirmation, H4 neuroglioma cells, luminescence (AID 1988); assay type: functional, cell-based
[28] = Luminescence Cell-Based Dose Response HTS to Identify Inhibitors of 5'UTR Stem-Loop Driven Prion Protein mRNA Translation in H4 Neuroglioblastoma Cells. [Related pubchem assays: 1827 (Project Summary), 1813 (Primary HTS)]; assay type: functional
[29] = cytotoxicity toward NIH3T3 fibroblasts, dose response, counter-screen, cell-based, ATP luminescence, mouse fibroblasts (AID 2010); assay type: functional;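 further: cells exposed to compound for about 90 hours before reading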
[30] = system: Vero; test: cells; assay type: functional; conditions: Chlorocebus sabaeus
[31] = Luminescence Cell-Based Dose Confirmation HTS to Identify Inhibitors of Polyadenylation.; assay type: functional

## Cc1ccc(N=C(S)N=C(N)Nc2nc(C)c3cc(C)ccc3n2)c(C)c1
[1]
  IC50: > 35 µM (not active)
[2]
  IC50: 22.9 µM (not active)

## CC1(C)CC(=O)C2=C(C1)c1c(ccc3ccccc13)NC2c1cc([N+](=O)[O-])cc([N+](=O)[O-])c1O (centres undefined)
[3]
  EC50: > 150 µM (not active)
[4]
  IC50: 25.3 µM (active)
[5]
  EC50: 4.43 µM (active)
[6]
  IC50: 29.4 µM (active)
[7]
  EC50: > 150 µM (not active)
[8]
  IC50: 29.9 µM (active)
[9]
  EC50: 0.622 µM (active)
[10]
  EC50: 106 µM (active)

## O=C(Nc1ccc(Oc2ccc3ccccc3c2)cc1)c1ccco1
[11]
  EC50: 12 µM (active)

## Cc1ccc(Nc2nc3ccccc3[nH]2)nc1
[3]
  EC50: > 150 µM (not active)
[12]
  EC50: 0.279 µM (active)
[5]
  EC50: 5.49 µM (active)
[13]
  EC50: 43.1 µM (active)
[7]
  EC50: > 150 µM (not active)
[14]
  EC50: < 0.1 µM (active)
[15]
  EC50: 0.601 µM (active)
[16]
  EC50: 0.368 µM (active)

## C[n+]1cc(C(=O)N2CCCCC2)ccc1/C=C/c1c[nH]c2ccccc12
[17]
  IC50: 2.7 µM (active)
[18]
  IC50: 2.44 µM (active)
[19]
  EC50: > 100 µM (active)

## CC(=O)c1cc(C#N)c(SCC(=O)c2ccc(O)c(O)c2)nc1C
[20]
  EC50: 11 µM (active)

## Cc1cc(C(=O)CN(C)CC(=O)N2CCOCC2)c(C)n1Cc1ccccc1
[21]
  EC50: > 30 µM (not active)

## COc1c(C)c2c(c(O)c1C/C=C(\C)CCC(=O)O)C(=O)OC2 [MYCOPHENOLIC ACID]
[22]
  IC50: < 0.05 µM (active)
[23]
  AC50: 15.8 µM (inconclusive)
[24]
  CC50: 4.61 µM (active)
[25]
  EC50: 1.64 µM (active)
[26]
  EC50: 10.2 µM (active)
[27]
  EC50: 8.2 µM (active)
[28]
  EC50: 0.116 µM (active)
[29]
  EC50: 10.9 µM (active)
[30]
  CC50: 9.68 µM (active)

## CC(C)CC1Nc2ncnc(N3CCN(c4ccccc4)CC3)c2N(Cc2ccccc2)C1=O (centres undefined)
[31]
  EC50: > 120 µM (not active)
